Tests used:
[1] = tested on: Y705P STAT3 recruitment in IL6 promoter; experiment: Chromatin immunoprecipitation of STAT3 response element in IL6 promoter; type: cell-based, human; conditions: 10 ng/mL EGF + 20 nM compound, 5 hrs, MDA-MB-468
Method: FIG. 9 illustrates an embodiment of the present invention and illustrates promoter recruitment assay of STAT3 in IL6 promoter. (A) MDA-MB-468 cells were treated with 5, 10, and 20 ng/mL doses of EGF for 5 hrs followed by immunoblot (IB) analyses of Y705 phospho and S727 phospho STAT3 in nuclear extracts. Histone 3 ([…]) IB was run as control. (B) EMSA analyses were performed in nuclear extracts of EGF (20 ng/mL)- and EGF+SIM-1 (20 nM)-treated MDA-MB-468 cells against the STAT3-specific oligonucleotide probe (Li-Cor bioscience; Cat #P/N: 829-07922) or SEQ ID NO: 1 and resolved in 6% DNA retardation gel (Invitrogen). […]
Third, to further confirm the promoter recruitment activity of Y705PSTAT3 in the IL6 promoter, chromatin immunoprecipitation assay of STAT3-response element in the IL6 promoter was performed using primer sets described under “Promoter analysis and Chromatin Immunoprecipitation (ChIP) assay” hereinabove. Briefly, MDA-MB-468 cells were incubated with 10 ng/mL EGF, EGF+SIM-1 (20 nM), and EGF+SIM-2 (20 nM) for 5 hrs followed by performing an immunoprecipitation (IP) of DNA-bound STAT3 with Y705P STAT3-specific antibody and then the precipitated DNA by PCR analysis was analyzed to identify STAT3 response element (˜121 bp long) in IL6 promoter.

[2] = tested on: transcriptional activity of STAT3; experiment: STAT3-responsive eGFP reporter assay in MDA-MB-468 cells; type: cell-based, human; conditions: for EGF-induced GFP reporter activity: EGF 20 ng/mL, different doses; for IC50: Homo sapiens, MDA-MB-468, read-out: IC50 of STAT3 activation (eGFP reporter); for lowest concentration inhibiting STAT3 activation (eGFP reporter): as low as
Method: FIG. 10 illustrates an embodiment of the present invention and illustrates SIM-1 and SIM-2 inhibit expressions of IL6, RANTES, and other STAT3-dependent tumor promoting genes and proteins. (A) A gene array of STAT3 dependent 66 genes (listed in Table 1) was performed in mRNA samples of MDA-MB-468 cells. Realtime PCR plate coated with 66 primer sets of STAT3-dependent genes was run for four conditions including control, EGF (25 ng/mL), EGF+SIM-1 (10 nM) and EGF+SIM-2 (10 nM). The resultant Ct value was normalized with four different housekeeping genes, and then summarized with a heatmap analyses drawn in Morpheus server of Broad Institute. […] (C) The cloning of STAT3 response element of IL6 promoter upstream of GFP reporter was performed by GeneCopoea genome editing service (Rockville, MD). The bit score map and sequence of consensus STAT3 response element or SEQ ID NO: 2 was shown below. EGFP reporter assay was performed in EGF-induced (20 ng/mL) MDA-MB-468 after treatments of increasing doses of (D) SIM-1 and (E) SIM-2 for 5 hrs. Briefly, MDA-MB-468 cells were transfected with the plasmid for 24 hrs using Lipofectamine transfection strategy followed by the treatment with EGF (20 ng/mL) alone and together with increasing doses SIM-1 and SIM-2 for additional 5 hrs. After that live cells were recorded at Ex:Em=485/535 nm wavelength for GFP activity. (F) The scrambled STAT3 response element in IL6 promoter or SEQ ID NO: 3 was also synthesized partnering with GeneCopoea. One-way ANOVA (treatment as effector) was adopted to test the significance between groups at **p<0.01, #p<0.005, and *p<0.05. (G) The GFP reporter activity was measured where the scrambled gene was cloned upstream of eGFP reporter. Results are mean±SD of three different experiments Ns=no significance. (H) Realtime PCR analyses of IL6 was performed in MDA-MB-468 cells maintained under control, EGF (25 ng/mL), EGF+SIM-1(20 nM), and EGF+SIM-2 (20 nM) conditions for 5 hrs. (I) ELISA analysis of IL6 was performed after 48 hrs in MDA-MB-468 cells kept under similar treatment conditions. (J) Realtime PCR (5 hrs post-treatment) and (K) ELISA analyses of RANTES (48 hrs post treatment) were performed under similar condition. Results are mean±SD of three different experiments. One-way ANOVA (treatment as effector) was adopted to test the significance between groups at ***p<0.001, **p<0.01, and *p<0.05.
GFP reporter assay. To assay the transcriptional activities of STAT3, cells at 75% confluence were transfected by 0.1 μg of pEZX-PF02 plasmid cloned with STAT3 response element of IL6 promoter upstream of eGFP reporter. The transfection was done by Lipofectamine 3000™ reagent as per the manufacturer's protocol (Thermofisher). […] GFP reporter activities were analyzed in PerkinElmer VictorX3 plate reader at Ex:Em=485/535 nm.
Once recruited to the DNA, STAT3 controls the gene transcription. Therefore finally, an eGFP reporter assay was performed to evaluate if SIM-1 and SIM-2 inhibited the transcriptional activity of STAT3. An eGFP reporter cassette was cloned under the guidance of IL6 promoter carrying STAT response element (FIG. 10C), transfected in MDA-MB-468 cells, and then treated by EGF (20 ng/mL) along with different doses of SIM-1 and SIM-2.

O=C(O)CCC(=O)NCc1csc2ccc(Cl)cc12 [SIM-1, 4-[(5-chloro-1-benzothiophen-3-yl)methylamino]-4-oxobutanoic acid]
promoter recruitment activity of Y705P STAT3 in IL6 promoter [1]: significantly attenuated | EGF-induced GFP reporter activity [2]: dose-dependently inhibited | IC50 [2]: ~20 nM | lowest concentration inhibiting STAT3 activation (eGFP reporter) [2]: 5 nM

CCOC(=O)c1c(NC(C)=O)sc2c(Cl)c(/C=N/O)ccc12 [SIM-2, ethyl 2-acetamido-7-chloro-6-(hydroxyiminomethyl)-1-benzothiophene-3-carboxylate]
promoter recruitment activity of Y705P STAT3 in IL6 promoter [1]: significantly attenuated | EGF-induced GFP reporter activity [2]: dose-dependently inhibited | IC50 [2]: ~20 nM | lowest concentration inhibiting STAT3 activation (eGFP reporter) [2]: 5 nM

Reference: patent US20250255847A1, “[…]s: Novel Drugs for Triple Negative Breast Cancer” (SIMMARON RSEARCH INC, priority 2024, published 2025)
